“And” between values parts separate entries of the source, which are not always exact repeats. Equal values may be shown once. Read-outs that look alike come from different tables or passages of the source.
Experiments:
Assay in all cases: SelectScreen kinase panel screening
Type in all cases: biochemical
RPS6KB1 (p70S6K) = RPS6KB1 (p70S6K) (Homo sapiens (Human), UniProt P23443); conditions: for inhibition at 10 µM: RPS6KB1 (p70S6K)
From the text: (§1) The complete list of the kinases given in Table 1 and their details can be found on the ThermoFisher website for Biochemical Kinase assays (thermofisher.com/us/en/home/industrial/pharma-biopharma/drug-discovery-development/target-and-lead-identification-and-validation/kinasebiology.html).
RJ1 was taken as the lead structure for the synthesis of several diamide and monoamide derivatives of 4,6-diaminoisoindolin-1,3-dione.

IKBKE (IKK epsilon) = IKBKE (IKK epsilon) (Homo sapiens (Human), UniProt Q14164)
From the text: as §1

RET = RET (Homo sapiens (Human), UniProt P07949)
RET, sequence (P07949 29-1114): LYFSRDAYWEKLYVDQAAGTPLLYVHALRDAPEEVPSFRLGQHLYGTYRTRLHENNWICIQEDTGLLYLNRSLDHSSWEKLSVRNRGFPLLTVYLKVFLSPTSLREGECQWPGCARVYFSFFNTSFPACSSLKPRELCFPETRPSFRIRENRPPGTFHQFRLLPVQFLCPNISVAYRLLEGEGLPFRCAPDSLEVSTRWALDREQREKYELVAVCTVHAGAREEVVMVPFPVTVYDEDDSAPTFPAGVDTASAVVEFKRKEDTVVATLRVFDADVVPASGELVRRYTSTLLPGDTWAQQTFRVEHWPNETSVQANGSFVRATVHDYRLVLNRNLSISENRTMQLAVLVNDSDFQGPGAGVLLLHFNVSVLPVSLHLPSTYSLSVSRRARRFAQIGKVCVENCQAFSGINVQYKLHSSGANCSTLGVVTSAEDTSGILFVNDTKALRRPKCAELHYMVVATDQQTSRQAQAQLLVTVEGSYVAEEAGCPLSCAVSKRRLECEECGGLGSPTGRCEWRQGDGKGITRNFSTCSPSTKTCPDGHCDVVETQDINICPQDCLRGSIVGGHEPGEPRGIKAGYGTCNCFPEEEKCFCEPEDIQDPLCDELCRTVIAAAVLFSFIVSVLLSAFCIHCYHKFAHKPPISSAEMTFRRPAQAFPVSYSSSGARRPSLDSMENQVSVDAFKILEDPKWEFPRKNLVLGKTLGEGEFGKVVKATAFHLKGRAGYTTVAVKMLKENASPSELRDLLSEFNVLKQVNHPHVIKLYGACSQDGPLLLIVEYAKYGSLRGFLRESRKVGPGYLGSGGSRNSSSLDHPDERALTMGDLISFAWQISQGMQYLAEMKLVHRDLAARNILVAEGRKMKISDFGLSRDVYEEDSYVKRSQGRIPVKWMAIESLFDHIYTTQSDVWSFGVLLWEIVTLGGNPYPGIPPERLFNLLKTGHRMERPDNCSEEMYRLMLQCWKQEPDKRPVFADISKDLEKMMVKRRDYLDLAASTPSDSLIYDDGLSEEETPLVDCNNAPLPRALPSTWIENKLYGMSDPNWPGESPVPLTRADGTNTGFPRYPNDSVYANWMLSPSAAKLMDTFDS
From the text: as §1

FLT4 (VEGFR3) = FLT4 (VEGFR3) (Homo sapiens (Human), UniProt P35916)
From the text: as §1

MST1R (RON) = MST1R (RON) (Homo sapiens (Human), UniProt Q04912)
From the text: as §1

ERBB4 (HER4) = ERBB4 (HER4) (Homo sapiens (Human), UniProt Q15303)
From the text: as §1

JAK1 = JAK1 (Homo sapiens (Human), UniProt P23458)
JAK1, sequence (P23458 whole entry): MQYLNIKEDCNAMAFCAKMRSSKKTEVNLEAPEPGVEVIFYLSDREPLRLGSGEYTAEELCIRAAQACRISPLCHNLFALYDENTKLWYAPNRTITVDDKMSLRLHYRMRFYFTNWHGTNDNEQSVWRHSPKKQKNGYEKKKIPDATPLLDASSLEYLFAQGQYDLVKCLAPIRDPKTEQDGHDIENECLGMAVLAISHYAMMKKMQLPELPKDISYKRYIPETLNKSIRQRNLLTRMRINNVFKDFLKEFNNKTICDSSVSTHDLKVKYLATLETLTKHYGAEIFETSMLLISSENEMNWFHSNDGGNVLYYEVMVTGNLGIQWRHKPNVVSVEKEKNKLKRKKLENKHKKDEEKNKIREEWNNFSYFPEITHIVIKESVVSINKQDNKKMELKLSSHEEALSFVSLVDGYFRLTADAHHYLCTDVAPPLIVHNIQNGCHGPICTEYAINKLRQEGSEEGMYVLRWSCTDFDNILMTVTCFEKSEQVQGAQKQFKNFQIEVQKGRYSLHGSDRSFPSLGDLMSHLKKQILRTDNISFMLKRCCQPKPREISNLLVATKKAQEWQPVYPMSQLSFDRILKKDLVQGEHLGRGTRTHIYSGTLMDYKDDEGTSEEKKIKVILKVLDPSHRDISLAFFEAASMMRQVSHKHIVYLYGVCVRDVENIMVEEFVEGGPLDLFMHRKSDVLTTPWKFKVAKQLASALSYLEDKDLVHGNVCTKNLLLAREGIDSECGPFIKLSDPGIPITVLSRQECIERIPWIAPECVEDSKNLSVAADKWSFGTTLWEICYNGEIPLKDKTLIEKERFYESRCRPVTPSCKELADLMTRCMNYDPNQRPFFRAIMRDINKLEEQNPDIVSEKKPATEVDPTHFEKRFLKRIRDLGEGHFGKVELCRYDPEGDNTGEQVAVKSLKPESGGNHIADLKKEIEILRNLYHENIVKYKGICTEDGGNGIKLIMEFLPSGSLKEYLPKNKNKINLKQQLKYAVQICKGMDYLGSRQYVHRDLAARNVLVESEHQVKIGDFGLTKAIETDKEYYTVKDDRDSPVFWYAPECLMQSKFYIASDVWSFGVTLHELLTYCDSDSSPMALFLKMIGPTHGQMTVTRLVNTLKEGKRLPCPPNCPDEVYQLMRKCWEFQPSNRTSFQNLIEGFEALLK
From the text: as §1

HCK = HCK (Homo sapiens (Human), UniProt P08631)
From the text: as §1

CDK7/cyclin H/MNAT1 = CDK7/cyclin H/MNAT1 (Homo sapiens (Human), UniProt P50613)
CDK7/cyclin H/MNAT1, sequence (P50613 whole entry): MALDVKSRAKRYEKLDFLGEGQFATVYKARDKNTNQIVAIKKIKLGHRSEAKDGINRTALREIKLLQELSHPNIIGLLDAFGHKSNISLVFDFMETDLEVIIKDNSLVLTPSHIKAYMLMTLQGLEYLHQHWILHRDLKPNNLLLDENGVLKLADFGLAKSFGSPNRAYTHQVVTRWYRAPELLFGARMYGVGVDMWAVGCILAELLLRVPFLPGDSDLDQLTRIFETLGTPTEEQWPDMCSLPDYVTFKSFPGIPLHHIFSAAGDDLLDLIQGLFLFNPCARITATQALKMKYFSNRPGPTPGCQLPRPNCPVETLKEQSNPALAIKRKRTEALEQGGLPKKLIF
CDK7/cyclin H/MNAT1, sequence (P51946 whole entry partner): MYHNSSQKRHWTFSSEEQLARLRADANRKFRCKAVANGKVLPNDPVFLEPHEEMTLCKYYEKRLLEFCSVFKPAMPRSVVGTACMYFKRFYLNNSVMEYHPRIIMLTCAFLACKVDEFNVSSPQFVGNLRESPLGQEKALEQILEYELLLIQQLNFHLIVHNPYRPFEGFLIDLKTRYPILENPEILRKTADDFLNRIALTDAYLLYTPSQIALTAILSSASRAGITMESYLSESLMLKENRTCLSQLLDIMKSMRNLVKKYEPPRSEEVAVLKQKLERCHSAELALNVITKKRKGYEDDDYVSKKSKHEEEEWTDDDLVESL
CDK7/cyclin H/MNAT1, sequence (P51948 whole entry partner): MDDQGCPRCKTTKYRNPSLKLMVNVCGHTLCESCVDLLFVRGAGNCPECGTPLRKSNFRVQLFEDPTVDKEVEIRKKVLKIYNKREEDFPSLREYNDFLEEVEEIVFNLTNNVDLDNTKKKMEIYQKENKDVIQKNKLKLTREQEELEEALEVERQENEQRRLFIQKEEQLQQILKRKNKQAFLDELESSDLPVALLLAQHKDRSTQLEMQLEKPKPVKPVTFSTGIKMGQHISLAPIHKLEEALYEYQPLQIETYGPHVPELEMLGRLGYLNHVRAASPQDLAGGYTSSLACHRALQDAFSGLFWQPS
From the text: as §1

FGR = FGR (Homo sapiens (Human), UniProt P09769)
From the text: as §1

CDC42 BPA (MRCKA) = CDC42 BPA (MRCKA) (Homo sapiens (Human), UniProt Q5VT25)
From the text: as §1

ERBB2 (HER2) = ERBB2 (HER2) (Homo sapiens (Human), UniProt P04626)
From the text: as §1

[1] = target: PIK3CA/PIK3R1 (p110 alpha/p85 alpha) (Homo sapiens (Human), UniProt P42336); conditions: read-out: % Inhibition class
From the text: as §1

PDGFRA (PDGFR alpha) = PDGFRA (PDGFR alpha) (Homo sapiens (Human), UniProt P16234)
From the text: as §1

CDK1/cyclin B = CDK1/cyclin B (Homo sapiens (Human), UniProt P06493)
From the text: as §1

PTK2B (FAK2) = PTK2B (FAK2) (Homo sapiens (Human), UniProt Q14289)
From the text: as §1

EPHA1 = EPHA1 (Homo sapiens (Human), UniProt P21709)
From the text: as §1

[2] = target: MAPK14 (p38 alpha) Direct (Homo sapiens (Human), UniProt Q16539)
From the text: as §1

MAP2K1 (MEK1) = MAP2K1 (MEK1) (Homo sapiens (Human), UniProt Q02750)
From the text: as §1

PLK1 = PLK1 (Homo sapiens (Human), UniProt P53350)
From the text: as §1

TYRO3 (RSE) = TYRO3 (RSE) (Homo sapiens (Human), UniProt Q06418)
TYRO3 (RSE), sequence (Q06418 41-890): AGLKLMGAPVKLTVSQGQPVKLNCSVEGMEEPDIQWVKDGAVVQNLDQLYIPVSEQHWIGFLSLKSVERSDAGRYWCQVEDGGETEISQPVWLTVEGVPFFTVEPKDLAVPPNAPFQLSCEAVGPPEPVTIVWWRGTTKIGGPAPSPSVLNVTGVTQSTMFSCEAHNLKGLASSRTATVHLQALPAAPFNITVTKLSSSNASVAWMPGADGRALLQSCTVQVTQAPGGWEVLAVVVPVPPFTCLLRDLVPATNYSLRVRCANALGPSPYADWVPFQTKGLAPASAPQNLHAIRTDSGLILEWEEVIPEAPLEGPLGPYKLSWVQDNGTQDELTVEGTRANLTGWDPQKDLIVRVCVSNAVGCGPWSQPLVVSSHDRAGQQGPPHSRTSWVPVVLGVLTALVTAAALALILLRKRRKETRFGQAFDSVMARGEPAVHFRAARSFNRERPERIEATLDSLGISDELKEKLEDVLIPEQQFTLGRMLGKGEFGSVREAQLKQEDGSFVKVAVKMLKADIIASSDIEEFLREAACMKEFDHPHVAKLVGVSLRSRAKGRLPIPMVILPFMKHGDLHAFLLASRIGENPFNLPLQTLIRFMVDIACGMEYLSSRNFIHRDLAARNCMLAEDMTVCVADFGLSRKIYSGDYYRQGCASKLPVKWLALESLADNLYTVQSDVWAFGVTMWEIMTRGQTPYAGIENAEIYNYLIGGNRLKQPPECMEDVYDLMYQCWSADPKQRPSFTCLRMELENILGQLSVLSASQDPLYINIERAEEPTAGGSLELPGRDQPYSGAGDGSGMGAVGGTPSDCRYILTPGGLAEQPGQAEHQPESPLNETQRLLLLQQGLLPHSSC
From the text: as §1

PAK4 = PAK4 (Homo sapiens (Human), UniProt O96013)
From the text: as §1

MAP4K4 (HGK) = MAP4K4 (HGK) (Homo sapiens (Human), UniProt O95819)
From the text: as §1

AKT2 (PKB beta) = AKT2 (PKB beta) (Homo sapiens (Human), UniProt P31751)
From the text: as §1

JAK2 = JAK2 (Homo sapiens (Human), UniProt O60674)
From the text: as §1

AURKC (Aurora C) = AURKC (Aurora C) (Homo sapiens (Human), UniProt Q9UQB9)
From the text: as §1

SGK (SGK1) = SGK (SGK1) (Homo sapiens (Human), UniProt O00141)
SGK (SGK1), sequence (O00141 whole entry): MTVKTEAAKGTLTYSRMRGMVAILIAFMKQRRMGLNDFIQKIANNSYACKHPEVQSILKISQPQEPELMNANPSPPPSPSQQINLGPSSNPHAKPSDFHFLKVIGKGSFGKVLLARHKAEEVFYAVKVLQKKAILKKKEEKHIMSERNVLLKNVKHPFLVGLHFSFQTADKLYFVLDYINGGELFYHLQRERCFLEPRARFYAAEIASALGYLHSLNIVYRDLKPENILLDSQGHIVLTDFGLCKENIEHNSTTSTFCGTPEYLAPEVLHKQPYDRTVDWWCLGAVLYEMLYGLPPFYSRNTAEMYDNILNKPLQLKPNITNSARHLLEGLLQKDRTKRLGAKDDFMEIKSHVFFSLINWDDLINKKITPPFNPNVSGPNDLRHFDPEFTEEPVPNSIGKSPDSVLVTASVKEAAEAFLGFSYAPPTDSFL
From the text: as §1

NTRK1 (TRKA) = NTRK1 (TRKA) (Homo sapiens (Human), UniProt P04629)
From the text: as §1

RPS6KB1 (p70S6K), sequence (P23443 whole entry): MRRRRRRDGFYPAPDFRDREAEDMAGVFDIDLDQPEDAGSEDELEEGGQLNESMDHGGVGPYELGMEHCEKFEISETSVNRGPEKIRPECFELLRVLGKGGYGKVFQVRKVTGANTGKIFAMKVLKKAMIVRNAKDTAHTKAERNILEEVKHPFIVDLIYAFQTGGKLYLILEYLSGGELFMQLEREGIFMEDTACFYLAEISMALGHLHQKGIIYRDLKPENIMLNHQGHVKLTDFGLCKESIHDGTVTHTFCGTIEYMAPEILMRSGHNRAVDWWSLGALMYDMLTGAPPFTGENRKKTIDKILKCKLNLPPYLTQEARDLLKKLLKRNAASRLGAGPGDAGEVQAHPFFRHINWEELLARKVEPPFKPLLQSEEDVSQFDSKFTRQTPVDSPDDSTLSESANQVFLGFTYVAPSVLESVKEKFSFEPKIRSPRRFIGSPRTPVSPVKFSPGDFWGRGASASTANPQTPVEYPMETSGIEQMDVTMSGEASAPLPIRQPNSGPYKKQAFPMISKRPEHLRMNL

Structure (SMILES): Nc1cc(N)c2c(c1)C(=O)NC2=O [RJ1, 4,6-diaminoisoindoline-1,3-dione]
- inhibition at 10 µM (RPS6KB1 (p70S6K); read-out: % Inhibition): 80%
- inhibition at 10 µM (RPS6KB1 (p70S6K); read-out: % Inhibition class): ≥ 80%
- selectivity against a panel of 120 disease relevant kinases (RPS6KB1 (p70S6K); SelectScreen panel): RPS6K1-selective inhibitor
- inhibition at 10 µM (IKBKE (IKK epsilon); read-out: % Inhibition): 16%
- inhibition at 10 µM (IKBKE (IKK epsilon); read-out: % Inhibition class): < 40%
- inhibition at 10 µM (RET; read-out: % Inhibition): 79%
- inhibition at 10 µM (RET; read-out: % Inhibition class): 40 to 80%
- inhibition at 10 µM (FLT4 (VEGFR3); read-out: % Inhibition): 55%
- inhibition at 10 µM (FLT4 (VEGFR3); read-out: % Inhibition class): 40 to 80%
- inhibition at 10 µM (MST1R (RON); read-out: % Inhibition): 27%
- inhibition at 10 µM (MST1R (RON); read-out: % Inhibition class): < 40%
- inhibition at 10 µM (ERBB4 (HER4); read-out: % Inhibition): 25%
- inhibition at 10 µM (ERBB4 (HER4); read-out: % Inhibition class): < 40%
- inhibition at 10 µM (JAK1; read-out: % Inhibition): 9%
- inhibition at 10 µM (JAK1; read-out: % Inhibition class): < 40%
- inhibition at 10 µM (HCK; read-out: % Inhibition): 21%
- inhibition at 10 µM (HCK; read-out: % Inhibition class): < 40%
- % Inhibition (CDK7/cyclin H/MNAT1; 10 μM): 1% and −1%
- inhibition at 10 µM (CDK7/cyclin H/MNAT1; read-out: % Inhibition class): < 40%
- inhibition at 10 µM (FGR; read-out: % Inhibition): 51%
- inhibition at 10 µM (FGR; read-out: % Inhibition class): 40 to 80%
- inhibition at 10 µM (CDC42 BPA (MRCKA); read-out: % Inhibition): 0%
- inhibition at 10 µM (CDC42 BPA (MRCKA); read-out: % Inhibition class): < 40%
- inhibition at 10 µM (ERBB2 (HER2); read-out: % Inhibition): 6%
- inhibition at 10 µM (ERBB2 (HER2); read-out: % Inhibition class): < 40%
- inhibition at 10 µM [1]: < 40%
- inhibition at 10 µM (PDGFRA (PDGFR alpha); read-out: % Inhibition): 13%
- inhibition at 10 µM (PDGFRA (PDGFR alpha); read-out: % Inhibition class): < 40%
- inhibition at 10 µM (CDK1/cyclin B; read-out: % Inhibition): 8%
- inhibition at 10 µM (CDK1/cyclin B; read-out: % Inhibition class): < 40%
- inhibition at 10 µM (PTK2B (FAK2); read-out: % Inhibition): 18%
- inhibition at 10 µM (PTK2B (FAK2); read-out: % Inhibition class): < 40%
- inhibition at 10 µM (EPHA1; read-out: % Inhibition): 15%
- inhibition at 10 µM (EPHA1; read-out: % Inhibition class): < 40%
- inhibition at 10 µM ([2]; read-out: % Inhibition): 2%
- inhibition at 10 µM ([2]; read-out: % Inhibition class): < 40%
- inhibition at 10 µM (MAP2K1 (MEK1); read-out: % Inhibition): 13%
- inhibition at 10 µM (MAP2K1 (MEK1); read-out: % Inhibition class): < 40%
- inhibition at 10 µM (PLK1; read-out: % Inhibition): 9%
- inhibition at 10 µM (PLK1; read-out: % Inhibition class): < 40%
- inhibition at 10 µM (TYRO3 (RSE); read-out: % Inhibition): 25%
- inhibition at 10 µM (TYRO3 (RSE); read-out: % Inhibition class): < 40%
- inhibition at 10 µM (PAK4; read-out: % Inhibition): 29%
- inhibition at 10 µM (PAK4; read-out: % Inhibition class): < 40%
- inhibition at 10 µM (MAP4K4 (HGK); read-out: % Inhibition): 66%
- inhibition at 10 µM (MAP4K4 (HGK); read-out: % Inhibition class): 40 to 80%
- inhibition at 10 µM (AKT2 (PKB beta); read-out: % Inhibition): 9%
- inhibition at 10 µM (AKT2 (PKB beta); read-out: % Inhibition class): < 40%
- inhibition at 10 µM (JAK2; read-out: % Inhibition): 22%
- inhibition at 10 µM (JAK2; read-out: % Inhibition class): < 40%
- inhibition at 10 µM (AURKC (Aurora C); read-out: % Inhibition): 40%
- inhibition at 10 µM (AURKC (Aurora C); read-out: % Inhibition class): < 40%
- inhibition at 10 µM (SGK (SGK1); read-out: % Inhibition): 50%
- inhibition at 10 µM (SGK (SGK1); read-out: % Inhibition class): 40 to 80%
- inhibition at 10 µM (NTRK1 (TRKA); read-out: % Inhibition): 5%
- inhibition at 10 µM (NTRK1 (TRKA); read-out: % Inhibition class): < 40%
